The source of these data is US20090306009A1, “Modulation of the P2Y2 Receptor Pathway” (P2-SCIENCE APS, priority 2005, published 2009).

The subject of assay [1] is leg blood flow. Briefly: Maximal nucleotide-induced vasodilatation at rest relative to peak LBF during maximal bicycling exercise. The format is in vivo, human. From the text:
Maximal UTP-induced vasodilatation was investigated at rest accounted for […] of the peak LBF during maximal bicycling exercise in comparison to the 78% increase in LBF previously registered for ATP (Rosenmeier et al. 2004 J. Physiol. 558:351-365).

For assay [2], the system named is resting leg of healthy male subjects. Briefly: Leg haemodynamic responses to intrafemoral artery infusion of purinergic vasodilators alone and combined with tyramine. The format is in vivo, human. The settings on record: for effect on increased sympathetic vasoconstrictor activity evoked by tyramine: infusion in the resting leg; for leg vasoconstriction caused by tyramine during vasodilator infusion: tyramine added to the infusion of the named vasodilator; for effect of tyramine on leg vascular conductance during vasodilator infusion / effect of tyramine on LBF during vasodilator infusion: tyramine added to vasodilator infusion; for effect of tyramine on LBF during vasodilator infusion: P=0.53; for leg a-v O2 difference during vasodilator infusion: vasodilator alone; for leg a-v O2 difference during vasodilator infusion / leg a-v O2 difference during combined vasodilator and tyramine infusion / leg blood flow (LBF) during vasodilator infusion / leg blood flow (LBF) during combined vasodilator and tyramine infusion: mean±S.E.M.; for leg a-v O2 difference during combined vasodilator and tyramine infusion: vasodilator plus tyramine; for leg blood flow (LBF) during vasodilator infusion: intrafemoral artery infusion of vasodilator alone, resting leg, rest about 0.5; for leg blood flow (LBF) during combined vasodilator and tyramine infusion: vasodilator plus tyramine about 13.2 μmol/min. As to the method:
This study was performed in nine healthy male subjects from Denmark. The subjects were fully informed of any risks and discomforts associated with the experiments before giving their informed written consent to participate. The studies conformed to the code of Ethics of the World Medical Association (Declaration of Helsinki) and were approved by the Ethics Committee for Copenhagen and Frederiksberg communities.
Subjects reported to the laboratory at 8 a.m. or 1 p.m., following the ingestion of a light breakfast or lunch. Upon arrival, they rested in a supine position while three catheters were placed under local anaesthesia (1% lidocaine) into the femoral artery and vein of the right leg and in the femoral artery of the left leg using the Seldinger technique. The femoral artery and vein catheters were positioned 1-2 cm distal from the inguinal ligament. A thermistor (Edslab probe 94-0.3-2.5F) to measure venous blood temperature was inserted through the femoral venous catheter orientated in the anterograde direction for the determination of femoral venous blood flow. Femoral venous blood flow (an index of leg blood flow (LBF)) was determined by the constant infusion thermodilution technique (Andersen & Saltin, 1985 J Physiol. 366:233-49; González-Alonso et al. 2000 J Physiol. 524:603-15; Am J Physiol Heart Circ Physiol. 278(2):H321-30). LBF represents the average of two measurements made 1-2 min after the start of exercise and 1-2 min after the start of infusion of ATP, adenosine or tyramine. Arterial blood pressure was continuously monitored by a pressure transducer (Pressure Monitoring Kit, Baxter) at the level of inguinal region and calculated by integration of the pressure curve. Heart rate was determined from an electrocardiogram. All data were continuously recorded using a Powerlab system (ADInstruments, Sydney, Australia).
Leg blood flow (LBF) and mean arterial pressure (MAP) was measured during […] purinergically-induced hyperaemic conditions: (1) Intrafemoral artery infusion of adenosine (vasodilator control), (2) sequential intraarterial infusion of AMP, ADP, ATP or UTP (vasodilators), and (3), comparing the responses with the combined infusion with the vasoconstrictor drug tyramine, which evokes endogenous release of noradrenaline from sympathetic nerve endings.
Adenosine (Item Development AB, Stocksund, Sweden) was dissolved in isotonic saline (1.25 mg ml^−1) and infused at a rate of 16 μmol min^−1. AMP (Sigma) was dissolved in isotonic saline and infused at 71 μmol/min, ADP (Sigma) was dissolved in isotonic saline at […], ATP (Sigma) was dissolved in isotonic saline at 1 μmol/^min and UTP (Sigma) was dissolved in isotonic saline 1 μmol min^−1
95:2370-4; J Physiol. 547:971-6).
(§1) The combined infusion of adenosine and tyramine was to evoke a vasoconstrictor response in the resting leg of about 50%, without causing increases in arterial blood pressure, as previously documented in the Leg (Rosenmeier et al. 2004 J. Physiol. 558:351-365). Tyramine (Sigma T-2879) dissolved in isotonic saline (0.52 mg ml-1) was infused at a rate of about 13.2 μmol/min through all the tyramine trials.
The subjects first received separate infusions of adenosine, AMP, ADP, ATP or UTP for 4 min followed by combined infusions of vasodilator and tyramine for an additional 4 min.
Plasma noradrenaline and adrenaline concentrations were determined with high performance liquid chromatography with electrochemical detection (Hallman et al. 1978 Life Sci. 23(10):1049-52). Arterial and femoral haemoglobin concentration and O2 saturation were determined spectrophotometrically (OSM-3 Hemoximeter, Radiometer). PO2 was determined with the Astrup technique (ABL 5, Radiometer, Copenhagen, Denmark).
Leg vascular conductance was calculated as the quotient between LBF and mean arterial pressure. Leg O2 delivery was calculated by multiplying LBF by arterial O2 content. […]

Assay [3] concerns leg blood flow. The settings on record: previously registered, Rosenmeier et al. 2004; cited from earlier work.
A further assay concerns resting leg. Briefly: Tyramine infusion alone in the resting leg (separate studies). It is filed as in vivo, human. The settings on record: tyramine about 13.2 μmol/min, no vasodilator. How it is done:
as §1

[4] abbreviates: vasodilator alone versus combined with tyramine.

Structures are written as SMILES. Entries after “also recorded” stand apart in the source; their conditions may differ. Like-named read-outs stand apart in the source and are kept apart here.

Turning to `O=c1ccn([C@@H]2O[C@H](COP(=O)(O)OP(=O)(O)OP(=O)(O)O)[C@@H](O)[C@H]2O)c(=O)[nH]1` [UTP], the “maximal vasodilatation as share of peak LBF during maximal bicycling exercise” value in the assay on leg blood flow [1] stood at 50%. In assay [2], the “effect on increased sympathetic vasoconstrictor activity evoked by tyramine” value is on record as “fully blunts”, the “leg vasoconstriction caused by tyramine during vasodilator infusion” value (shortened to “leg vasoconstriction caused”) came out at 0%, the “effect of tyramine on leg vascular conductance during vasodilator infusion” value was “did not alter; also recorded: no reduction” and the “effect of tyramine on LBF during vasodilator infusion” value is “did not alter; also recorded: no reduction”. Also, in assay [2], the “leg a-v O2 difference during vasodilator infusion” value is reported as 7.1±0.9 ml l^−1; the “leg a-v O2 difference during combined vasodilator and tyramine infusion” value worked out at 7.1±1.5 ml l^−1. Besides, the “change of leg a-v O2 difference on addition of tyramine” value (shortened to “change of leg a-v O2 difference”) in assay [2] (setting [4]) is given as “Absolutely no change; also recorded: unchanged”.

Regarding `Nc1ncnc2c1ncn2[C@@H]1O[C@H](COP(=O)(O)OP(=O)(O)O)[C@@H](O)[C@H]1O` [ADP], in assay [2], the “effect on increased sympathetic vasoconstrictor activity evoked by tyramine” value is “does not; also recorded: substantial vasoconstrictor response”, the “leg blood flow (LBF) during vasodilator infusion” value was 3.34 ± 0.4 L/min, the “leg vasoconstriction caused” value worked out at 30% and the “leg a-v O2 difference during vasodilator infusion” value is 6.0+1 ml l^−1. Also, the “leg blood flow (LBF) during combined vasodilator and tyramine infusion” value in assay [2] was determined as 2.3 ± 0.3 L/min. Further, the “leg VO2, vasodilator alone versus with tyramine” value in assay [2] (setting [4]) is “statistically significantly different”.

On to `Nc1ncnc2c1ncn2[C@@H]1O[C@H](CO)[C@@H](O)[C@H]1O` [adenosine], for which, in assay [2], the “effect on increased sympathetic vasoconstrictor activity evoked by tyramine” value is listed as “does not; also recorded: substantial vasoconstrictor response”, the “leg blood flow (LBF) during vasodilator infusion” value came out at 3.8 ± 0.3 L/min, the “leg vasoconstriction caused” value was determined as 56% and the “leg a-v O2 difference during vasodilator infusion” value is 7.7±0.5 ml l^−1. Also, in assay [2], the “leg blood flow (LBF) during combined vasodilator and tyramine infusion” value came to 1.7 ± 0.2 L/min; the “leg a-v O2 difference during combined vasodilator and tyramine infusion” value was found to be 26.0±2.2 ml l^−1. Further, in assay [2] (setting [4]), the “change of leg a-v O2 difference” value is given as “elevated”.

With `Nc1ncnc2c1ncn2[C@@H]1O[C@H](COP(=O)(O)OP(=O)(O)OP(=O)(O)O)[C@@H](O)[C@H]1O` [ATP], the “maximal vasodilatation as share of peak LBF during maximal bicycling exercise” value in the assay with leg blood flow [3] is recorded as 78%. Further, in assay [2], the “effect on increased sympathetic vasoconstrictor activity evoked by tyramine” value is listed as “fully blunts”, the “leg vasoconstriction caused” value was 0%, the “effect of tyramine on leg vascular conductance during vasodilator infusion” value was “did not alter; also recorded: no reduction” and the “effect of tyramine on LBF during vasodilator infusion” value is reported as “did not alter; also recorded: no reduction”. Moreover, in assay [2], the “leg a-v O2 difference during vasodilator infusion” value amounted to 7.9±1.7 ml l^−1; the “leg a-v O2 difference during combined vasodilator and tyramine infusion” value worked out at 5.7±1.6 ml l^−1. The “change of leg a-v O2 difference” value in assay [2] (setting [4]) was “Absolutely no change; also recorded: unchanged”.

Take `Nc1ncnc2c1ncn2[C@@H]1O[C@H](COP(=O)(O)O)[C@@H](O)[C@H]1O` [AMP]: in assay [2], the “effect on increased sympathetic vasoconstrictor activity evoked by tyramine” value was “does not; also recorded: substantial vasoconstrictor response”, the “leg blood flow (LBF) during vasodilator infusion” value is 3.7 ± 0.4 L/min, the “leg vasoconstriction caused” value came to 53% and the “leg a-v O2 difference during vasodilator infusion” value turned out to be 4.5±0.5 ml l^−1. In assay [2], the “leg blood flow (LBF) during combined vasodilator and tyramine infusion” value was 1.7 ± 0.2 L/min; the “leg a-v O2 difference during combined vasodilator and tyramine infusion” value stood at 15.3±3.1 ml l^−1. Also, the “change of leg a-v O2 difference” value in assay [2] (setting [4]) is “elevated”.

On to `NCCc1ccc(O)cc1` [tyramine], for which the “reduction of blood flow by tyramine infusion” value in the assay with resting leg is 44±3%.
